The record followed here is publication PMC10886515, “Discovery of A Novel Series of Quinazoline–Thiazole Hybrids as Potential Antiproliferative and Anti-Angiogenic Agents” (Biomolecules, 2024).

In data set [1] the test system is EA.hy926 cells. In words: Alamar Blue cytotoxicity assay on EA.hy926 cells. The following applies: for IC50: Homo sapiens, read-out: IC50 EA.hy926; for Selectivity Index SIa: SIa = IC50 BJ/IC50 EA.hy296. The format is cell-based, human. An excerpt: (§1) A human endothelial hybrid cell line (EA.hy926) (passage number 10–15), human hepatocellular carcinoma (HepG2) cells (passage number 10–15), and normal foreskin fibroblasts (BJ) (passage number 5–10) were used in the present study. All cell lines were purchased from ATCC (Manassas, United States of America). EA.hy926 cells were maintained in DMEM with high glucose supplemented with 1% sodium pyruvate, while the BJ cells were maintained in DMEM with low glucose concentration. HepG2 cells were cultured in MEM. All media were supplemented with 10% fetal bovine serum (FBS) and 1% penicillin/streptomycin. All cell lines were cultured at 37 °C in an incubator with 5% CO2 supplementation and cellular media were refreshed every other day. Once the cells reached a confluency of 80–90%, they were either subcultured or used in experiments.
(§2) The synthesized compounds’ cytotoxicity was evaluated using the Alamar Blue (AB) assay as previously described. The metabolically active cell-dependent conversion of non-fluorescent resazurin to the highly fluorescent resorufin compound is quantified spectrophotometrically at λexcitation = 530/25; λemission = 590/35, using a Synergy 2 Multi-Mode microplate reader. Briefly, a total of 5 x 10^3 EA.hy926 and BJ cells and 1 x 10^4 HepG2 cells were seeded in 100 µL in 96 well plates. The cells were left to attach overnight. […] At 48 h post-stimulation, the media were removed, and the AB assay was performed. The reported range of concentrations for each compound was obtained by employing the up-and-down method.
(§3) The experiments were conducted in three biological replicates, each one including 6 technical replicates. Cells exposed to culture media with 0.2% DMSO served as negative control (NC) and were used for data normalization (100%). The 50% Inhibitory Concentration (IC50) values were determined based on the dose–response curves obtained by fitting the experimental data with a 4-parameter logistic curve in SigmaPlot 11 software.
(In general: Resazurin is reduced to fluorescent resorufin, in cell work by metabolically active cells.)

The test system of the next data set is HepG2 cells. In words: Alamar Blue cytotoxicity assay on HepG2 cells. The note with it: for IC50: Homo sapiens, read-out: IC50 HepG2; for Selectivity Index SIb: SIb = IC50 BJ/IC50 HepG2. The format is cell-based, human.
Text: as §1, §2, §3

The next data set deals with BJ cells. As to the kind of experiment: Alamar Blue cytotoxicity assay on BJ cells. It is filed as cell-based. The note with it: Homo sapiens, 48 h exposure, normal foreskin fibroblasts.
Text: as §1, §2, §3

Data set [2] deals with EA.hy926 cells. As to the kind of experiment: Wound healing (scratch) assay. The format is cell-based, human. The following applies: 12 h. Here is the method:
EA.hy926 cells were seeded in 12-well plates and incubated for 24 h until confluency was reached. The medium was removed and a scratch in the cell monolayer was manually added with a sterile pipette tip. Subsequently, the cells were gently washed two times with DPBS to remove the detached cells. […] Images were captured at the time of exposure (T0) and 12 h post-exposure (T12). The rate of cell migration was determined by calculating the wound healing percentage (%) according to the formula (AT0 – AT12)/ AT0*100 previously reported. The scratch area at the initial time of exposure (AT0) and after 12 h (AT12), expressed as square pixels (Px^2), were determined using the IKOSA Prisma Application Wound Healing (Scratch) assay (v2.2.0).

In data set [3] the test system is chorioallantoic membrane (CAM) of chicken eggs. As to the kind of experiment: Chorioallantoic egg membrane (CAM) assay. The format is in vivo. The following applies: for peak number of vascular branching points from day 3, fold lower than control sample: day 3 vs control (0.2% DMSO); for reduction in vascular branching on day 4 compared to day 3: day 4 vs day 3; for reduction in the number of vascular branching points on day 5 compared to day 5 of the control sample: day 5 vs control (0.2% DMSO); for reduction in vascular branching on day 5 compared to day 3: day 5 vs day 3. Here is the method:
To assess the anti-angiogenic effects, a biological model represented by the chorioallantoic membrane (CAM) of chicken eggs was employed. […] The experimental procedure involved the following steps: (I) initial cleaning with 70% alcohol solution and incubation of the eggs at a constant humidity (45%) and temperature (37.5 °C) on the first day; (II) on the third day of embryonic development (EDD3), a small hole at the egg tip was created and approximately 5–7 mL of albumen were extracted to facilitate detachment of the chorioallantoic membrane from the inner shell; and (III) on EDD4, a window was created at the egg’s top to visualize the vascular plexus, covering it with adhesive tape, and returning the egg to the incubator until the experiment’s commencement.
The assessment of anti-angiogenic impact began on the sixth day of embryonic development and extended over five days. To achieve this, a silicon ring was applied to the CAM, and 10 μL of the tested compounds was administered daily within the ring. The evaluation of angiogenesis involved daily photographic documentation of the vascular plexus using a Discovery v.8 stereomicroscope, a Zeiss Axio CAM 105 color camera, and ZEN core 3.8 software. […] The quantitative evaluation of vessel numbers branching points and total vessel area was performed using the IKOSA Prism Application CAM assay (v3.1.0).

Data set [4] in a line: Solubility observed in the cellular media. The format is physicochemical. The note with it: plasma or biological fluid, read-out: concentrations at which limited solubility in the cellular media was observed.
[5] abbreviates: EA.hy 926, 48 h exposure, Alamar Blue.
Where [6] appears, read: HepG2, 48 h exposure, Alamar Blue.

Structures are written as SMILES. Where two headings read alike, the source gives them in different places.

As to `COc1cc2ncnc(Oc3ccc(/C=N/Nc4nc(-c5ccc(C#N)cc5)cs4)cc3)c2cc1OC` [SA05, (E)-2-(2-(4-((6,7-dimethoxyquinazolin-4-yl)oxy)benzylidene)hydrazineyl)-4-(4-benzonitrile)thiazole], the IC50 (commonly the concentration at which inhibition is half-maximal) in the data set with EA.hy926 cells [1] (setting [5]) worked out at 1.4 µM; in the data set on HepG2 cells (setting [6]) it was 1.83 µM; in the data set with BJ cells, 2.67 µM. The “Selectivity Index SIa” value in the data set with EA.hy926 cells [1] stood at 1.91. Further, in the data set on HepG2 cells (HepG2 cells), the “fold higher activity compared to sorafenib” value is listed as 3.5 fold. In addition, the “Selectivity Index SIb” value with HepG2 cells came out at 1.46. The “Wound heal (%)” value worked out at 66.41% with EA.hy926 cells [2] (0.75 μM), 62.45% with EA.hy926 cells [2] (1 μM), 61.52% with EA.hy926 cells [2] (1.25 μM) and 54.42% in the data set with EA.hy926 cells [2] (1.5 μM). Moreover, the “peak number of vascular branching points from day 3, fold lower than control sample” value in data set [3] was 1.18 fold. In data set [3], the “reduction in vascular branching on day 4 compared to day 3” value is recorded as 16%. In data set [3], the “reduction in the number of vascular branching points on day 5 compared to day 5 of the control sample” value stood at 42%. Further, the “reduction in vascular branching on day 5 compared to day 3” value in data set [3] is on record as 39%.

Consider `CNC(=O)c1cc(Oc2ccc(NC(=O)Nc3ccc(Cl)c(C(F)(F)F)c3)cc2)ccn1` [Sorafenib, sorafenib, reference compound], for which the half-maximal inhibitory concentration (IC50) in the data set on EA.hy926 cells [1] (EA.hy 926, 48 h) was found to be 6.62 µM; with HepG2 cells (HepG2, 48 h) it was 6.28 µM; in the data set with BJ cells, 13.2 µM. Also, the results for the “Wound heal (%)” value in the data set on EA.hy926 cells [2] (1.25 μM), in the data set on EA.hy926 cells [2] (2.5 μM) and in the data set with EA.hy926 cells [2] (5 μM) were 70.54%, 37.99% and 18.88%, respectively.

`COc1cc2ncnc(Oc3ccc(/C=N/Nc4nc(-c5ccc(O)c(C(N)=O)c5)cs4)cc3)c2cc1OC` [SA07, (E)-5-(2-(2-(4-((6,7-dimethoxyquinazolin-4-yl)oxy)benzylidene)hydrazineyl)thiazol-4-yl)-2-hydroxy-benzamide]: the melting point (as a rule, the temperature, or range, at which the solid turns liquid) was in the range of 246 to 247 °C. Moreover, in the data set with EA.hy926 cells [1] (setting [5]), the IC50 stood at 5.85 µM. Moreover, in the data set with EA.hy926 cells [1], the “Selectivity Index SIa” value is given as 4.06. For the same compound, the IC50 in the data set on HepG2 cells (setting [6]) worked out at 27.3 µM. The “Selectivity Index SIb” value with HepG2 cells amounted to 0.87. The 50% inhibitory concentration (IC50) with BJ cells is 23.8 µM.

Regarding `COc1cc2ncnc(Oc3ccc(/C=N/Nc4nc(-c5ccc(F)cc5)cs4)cc3)c2cc1OC` [SA02, (E)-2-(2-(4-((6,7-dimethoxyquinazolin-4-yl)oxy)benzylidene)hydrazineyl)-4-(4-fluorophenyl)-thiazole], the melting point was in the range of 242 to 243 °C. The IC50 with EA.hy926 cells [1] (setting [5]) came out at 0.93 µM. In addition, the “Selectivity Index SIa” value in the data set on EA.hy926 cells [1] came to 2.53. Besides, the IC50 in the data set on HepG2 cells (setting [6]) stood at 2.34 µM. Further, the “Selectivity Index SIb” value in the data set on HepG2 cells worked out at 1.00. Also, in the data set with BJ cells, the IC50 amounted to 2.35 µM.

`COc1cc2ncnc(Oc3ccc(/C=N/Nc4nc(-c5ccc(C(F)(F)F)cc5)cs4)cc3)c2cc1OC` [SA04, (E)-2-(2-(4-((6,7-dimethoxyquinazolin-4-yl)oxy)benzylidene)hydrazineyl)-4-(4-(trifluoromethyl)-phenyl)thiazole] gave a melting point of 237 to 238 °C. The IC50 in the data set on EA.hy926 cells [1] (setting [5]) amounted to 0.98 µM. Besides, in the data set with EA.hy926 cells [1], the “Selectivity Index SIa” value worked out at 6.93. For the same compound, the concentration for half-maximal inhibition (IC50) in the data set with HepG2 cells (setting [6]) came to 2.72 µM. In addition, in the data set on HepG2 cells, the “Selectivity Index SIb” value worked out at 2.50. In the data set on BJ cells, the IC50 is 6.79 µM. In the data set with EA.hy926 cells [2] (0.25 μM), the “Wound heal (%)” value was determined as 63.45%. In the data set on EA.hy926 cells [2] (0.5 μM), the “Wound heal (%)” value is recorded as 46.99%. Also, the “Wound heal (%)” value in the data set with EA.hy926 cells [2] (0.75 μM) was found to be 46.83%. Moreover, the “Wound heal (%)” value with EA.hy926 cells [2] (1 μM) was determined as 43.87%. In data set [3], the “peak number of vascular branching points from day 3, fold lower than control sample” value worked out at 1.3 fold; the “reduction in vascular branching on day 4 compared to day 3” value is recorded as 47%; the “reduction in the number of vascular branching points on day 5 compared to day 5 of the control sample” value was 67%; the “reduction in vascular branching on day 5 compared to day 3” value came to 60%.

On to `COc1cc2ncnc(Oc3ccc(/C=N/Nc4nc(C)cs4)cc3)c2cc1OC` [SA06, (E)-2-(2-(4-((6,7-dimethoxyquinazolin-4-yl)-oxy)-benzylidene-)hydrazineyl)-4-methyl-thiazole], for which the half-inhibitory concentration (IC50) in the data set on EA.hy926 cells [1] (setting [5]) is over 10 µM; in the data set with HepG2 cells (setting [6]) it was over 100 µM; with BJ cells, over 100 µM. For the same compound, the solubility in data set [4] was over 5 µM.

On to `COc1cc2ncnc(Oc3ccc(/C=N/Nc4nc(-c5ccc(Cl)cc5)cs4)cc3)c2cc1OC` [SA03, (E)-2-(2-(4-((6,7-dimethoxyquinazolin-4-yl)oxy)benzylidene)hydrazineyl)-4-(4-chlorophenyl)-thiazole], for which the melting point lay within 231 to 232 °C. Further, the “fold higher activity compared to sorafenib” value with EA.hy926 cells [1] (EA.hy926 cells) is reported as 8.3 fold. Besides, in the data set on EA.hy926 cells [1] (setting [5]), the IC50 was found to be 0.79 µM. Also, the “Selectivity Index SIa” value in the data set on EA.hy926 cells [1] came out at 3.59. Also, in the data set with HepG2 cells (setting [6]), the IC50 amounted to 4.24 µM. The “Selectivity Index SIb” value in the data set on HepG2 cells was determined as 0.67. In addition, in the data set with BJ cells, the IC50 was 2.84 µM.

On to `COc1ccc(-c2csc(N/N=C/c3ccc(Oc4ncnc5cc(OC)c(OC)cc45)cc3)n2)cc1` [SA01, (E)-2-(2-(4-((6,7-dimethoxyquinazolin-4-yl)oxy)-benzylidene)hydrazineyl)-4-(4-methoxyphenyl)-thiazole], for which the melting point was 230 °C. Also, the IC50 in the data set with EA.hy926 cells [1] (setting [5]) was 3.64 µM. Moreover, in the data set with EA.hy926 cells [1], the “Selectivity Index SIa” value worked out at 9.96. In the data set on HepG2 cells (setting [6]), the IC50 was 31.2 µM. Moreover, the “Selectivity Index SIb” value in the data set with HepG2 cells amounted to 1.16. Further, the half-inhibitory concentration (IC50) in the data set on BJ cells was 36.2 µM.
